# According to US7608415B2, “Analysis of intracellular modifications” (Discoverx Corporation, priority 2004, dated 2009):
# Test system: IκB-PL
# Experiment: Homogenous EFC assay of lysates of HeLa/IκB-PL stable cell line stimulated with TNF-α
# Assay type: cell-based
# Conditions: increasing time periods
# Source text: The second experimental example illustrates the sensitivity of the EAstern blot method by following the regulated degradation of a PL-tagged cellular protein, IκB-PL. […] Stimulation of cells with cytokines, such as TNF-α, activates a pathway that leads to phosphorylation, ubiquitination, and subsequent degradation of IκB, which in turn leads to the release and activation of NF-κB. The regulated degradation of IκB is thus an indicator for NF-κB pathway activation.
# Cell lysate samples for EAstern blot analysis were prepared from a HeLa/IκB-PL stable cell line (WO 03/021265, filed Aug. 27, 2002) that was cultured and stimulated with TNF-α for increasing time periods. […] Another fraction of each was used for gel electrophoresis and transfer to PVDF blots as described above. To detect IκB-PL, the EAstern blot protocol was adapted for use with the chemiluminescent substrate Beta-Glo (Promega Corp., Cat. No. E4720). In particular, after incubating with EA Reagent, the blot was incubated at RT for 10 min in a solution of Beta-Glo:EACB (1:1, v/v), sandwiched between clear plastic sheets, and then its luminescence detected with a CCD camera.
substance,measurement,value
TNF-α,IκB-PL EFC signal after TNF-α stimulation,time-dependent degradation of IκB-PL signal
